In patent US20070154963A1, “Method to determine whether a compound is a cellular GSTpi inhibitor” (priority 2005, published 2007):
Numbered stars: 1 amine (or outer) side, 2 acyl side, 3 side chain; on linkers, the order of the positions; unused ones are H or OH. Square brackets hold non-standard residues; d marks the D form. Peptide text beside a SMILES is read from it. * marks the point of attachment. γGlu = O=C(O)[C@H](CCC(=O)[*:2])N[*:1]; dPhg = N[C@@H](C(=O)O)c1ccccc1; Bn = c1ccc(C*)cc1

Columns and labels:
[1] = molecular target: GST P1-1 (Homo sapiens, UniProt P09211); settings: purified GST P1-1 isoenzyme; read-out: GST P1-1 inhibition IC50; cited from earlier work
Chain of GST P1-1 (P09211 2-210 limits assumed, species assumed): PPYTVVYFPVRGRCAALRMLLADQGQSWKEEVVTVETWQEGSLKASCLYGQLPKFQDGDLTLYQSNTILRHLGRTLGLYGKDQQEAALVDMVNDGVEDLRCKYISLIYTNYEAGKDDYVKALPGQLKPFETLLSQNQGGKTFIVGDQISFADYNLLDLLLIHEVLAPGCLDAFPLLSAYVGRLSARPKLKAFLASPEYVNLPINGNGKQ

[2] = cited from earlier work
[3] = molecular target: T1, GSTπ (Homo sapiens, UniProt P09211); test: cellular GSTπ inhibition: immunoprecipitable GSTπ in HL-60 cell lysate, Western blot; assay type: cell-based
T1 construct: host or cells: HL-60 human promyelocytic leukemia cells
T1 sequence (P09211 2-210 limits assumed): as the sequence (P09211 2-210 limits assumed, species assumed) above
Experimental: RPMI 1640 medium, NuPAGE® LDS sample buffer (non-reducing lithium dodecyl sulfate buffer, Catalog # NP0007), and NuPAGE® Novex 4-12% Bis-Tris polyacrylamide gels (Catalog # NP0321) were obtained from Invitrogen, Inc., Carlsbad, Calif., U.S.A. Complete Mini protease inhibitor cocktail tablets (Catalog # 04 693 124 001) were obtained from Roche Diagnostics, Inc., Indianapolis, Ind., U.S.A., and were used according to package directions. Lysis buffer (50 mM Tris, pH 8.0, 120 mM NaCl, 0.5% NP-40, and 100 mM NaF) was prepared at Telik, Inc., and the protease inhibitors added shortly before use.
HL-60 cells were seeded at 6×10^5 cells/mL in 20 mL RPMI 1640 medium supplemented with 10% fetal bovine serum, 1 mM L-glutamine and 20 μM gentamycin in each of six T75 flasks, and incubated at 37° C. overnight in a 5% CO2 atmosphere. […] The contents of each flask were then treated as follows: the cells were pelleted by centrifugation and the cell pellet washed twice with phosphate-buffered saline. The cells were then lysed by suspending the pellet in 1 mL lysis buffer, and incubating with gentle agitation at 4° C. for 30 minutes. The cell lysate was cleared by centrifugation at 13,000 rpm for 10 minutes, and the protein content of the lysate was measured using the Bio-Rad protein assay kit. Cell lysate containing 1 mg total proteins was incubated at 4° C. overnight with 4.2 μg of purified mouse monoclonal anti-human GSTπ antibody in 1 mL total volume. Protein A/G agarose beads, 50 μL, were added to the mixture and incubated at 4° C. for 1 hour. The beads were collected by centrifugation, washed three times in lysis buffer, and resuspended in 10 μL 1× non-reducing lithium dodecyl sulfate buffer, and the suspension heated at 95° C. for 5 minutes. The proteins from the six cell lysates, together with a molecular weight marker, were then separated by electrophoresis on a 4-12% Bis-Tris gel and transferred to a nitrocellulose membrane. […] The GSTπ protein bands were visualized and the summed intensities of the GST P1-1 dimer and GST P1 monomer bands quantitated on an Odyssey infrared scanner.

[4] = system: HL-60 promyelocytic leukemia cells; settings: in vitro; cited from earlier work
[5] = system: hematopoietic progenitor cells in normal human peripheral blood; settings: all three lineages; cited from earlier work
[6] = normal animals and animals depleted by cisplatin or fluorouracil; cited from earlier work
[7] = MDS clinical trial, interim results; cited from earlier work
[8] = HL-60 cells, 1-40 μM, two hours

Row | Compound | IC50 [1] [µM] | permeability through cell membrane [2] | inhibition at 20 µM ([3]; HL-60, 20 μM) [%] | cellular GSTπ inhibition (amounts of immunoprecipitable GST P1 and GST P1-1 vs DMSO control) [3, 8] | concentration dependence of cellular GSTπ inhibitory effect [3, 8] | differentiation of HL-60 cells [4] | colony formation of hematopoietic progenitor cells [5] | white blood cell production [6] | hematologic response [7] | tolerability [7]
1 | N[C@@H](CCC(=O)N[C@@H](CSCc1ccccc1)C(=O)N[C@@H](C(=O)O)c1ccccc1)C(=O)O [TLK117, L-γ-glutamyl-S-(phenylmethyl)-L-cysteinyl-D-phenylglycine] (γGlu-Cys(Bn)-[dPhg]-OH) | ~0.4 | poor permeability | – | – | – | – | – | – | – | –
2 | CCOC(=O)[C@@H](N)CCC(=O)N[C@@H](CSCc1ccccc1)C(=O)N[C@@H](C(=O)OCC)c1ccccc1 [TLK199] | > 200 | – | ~90 | is a cellular GSTπ inhibitor | concentration dependent | induce the differentiation | stimulate colony formation | increase white blood cell production | multilineage hematologic improvement | well tolerated
